Earlier results in patent EP2367539B1, “NOVEL COMPOSITION FOR TREATMENT OF ESSENTIAL THROMBOCYTHEMIA” (AOP Orphan Pharmaceuticals AG, priority 2008, dated 2010).

What was measured:
PDE 3 [1] = details: compared with anagrelide
PDE 3 [2] = tested on: PDE 3

Compound	potency as an inhibitor of PDE 3 (PDE 3 [1])	platelet reduction and PDE 3 inhibitory activity (PDE 3 [2])
O=C1NC2=Nc3ccc(Cl)c(Cl)c3CN2C1O (centres unmarked) [3-hydroxyanagrelide]	considerably more potent than anagrelide	
NC1=Nc2ccc(Cl)c(Cl)c2CN1 [RL 603, 2-amino-5,6-dichloro-3,4-dihydroquinazolone]		lacks these activities
